Assay results published in patent US11485720B2, “Anti-infective agents” (University of Dundee, priority 2016, dated 2022).

Experiments:
Trypanosoma cruzi = Trypanosoma cruzi intracellular imaging assay; format: cell-based; settings: read-out: Trypanosoma cruzi pEC50 (converted)
Excerpt: Assay Method for Measurement of In Vitro Inhibition of Trypanosoma cruzi. […] These experiments were run in accordance with the method of Pena et. al., Scientific Reports 5, Article number: 8771 (2015). Results from these experiments are provided in the Experimental Results hereinafter.

Cryptosporidium parvum = experiment: In vitro Crytosporidium inhibition assay; format: cell-based; settings: Cryptosporidium parvum; read-out: Cryptosporidium parvum pEC50 (converted)
Excerpt: Assay Method for Measurement of In Vitro Inhibition of Crytosporidium.
These experiments were run in accordance with the method of Besssoff et. al. Antimicrob. Agents Chemother. 2013, 57:1804-1814. Results from these experiments are provided in the Experimental Results hereinafter.

[1] = tested on: Plasmodium falciparum strain 3D7; experiment: Plasmodium falciparum 3D7 in vitro growth inhibition (SYBRgreen I); format: cell-based; settings: Plasmodium falciparum, 3D7; read-out: pEC50 for Pf 3D7 (converted)
Protocol: Parasite Cultures and Cytotoxicity Assay Methodology for Plasmodium falciparum. […] Growth inhibition of the Plasmodium falciparum cultures was quantified in a 10-point dose response curve with a 1 in 3 dilution series from a top assay concentration of 50 μM. This 384 well plate based fluorescence assay utilises the binding of SYBRgreen I (Thermo Fisher Scientific/Invitrogen cat. no. S7585) to double stranded DNA, which greatly increases the fluorescent signal at 528 nm after excitation at 485 nm. Mefloquine was used as a drug control to monitor the quality of the assay (Z′=0.6 to 0.8, where Z′ is a measure of the discrimination between the positive and negative controls on a screen plate). Dose-response curves were determined from a minimum of 3 independent experiments. Compound bioactivity was expressed as EC50, the effective concentration of compound causing 50% parasite death.

Hep G2 = Hep G2 in-vitro cytotoxicity assay; format: cell-based; settings: Homo sapiens, HepG2, read-out: Hs HEPG2 pEC50 (converted)
Excerpt: In-vitro cytotoxicity studies can be carried out using Hep G2 (Human hepatocyte carcinoma, HPACC cat. no. 85011430) used as indicators for general mammalian cell toxicity. Hep G2 in-vitro cytotoxicity can be assessed using the assay procedure as described in “Use of a human-derived liver cell line for the detection of cytoprotective, antigenotoxic and cogenotoxic agents”, Volker Mersch-Sundermann, Siegfried Knasmüller, Xin-jiang Wu, Firouz Darroudi, Fekadu Kassie. J. Tox 198 (2004) 329-340) the contents of which are incorporated herein by reference.

[2] = biological target: T1, Plasmodium falciparum lysyl t-RNA synthetase (Pf-KRS1) (Plasmodium falciparum, UniProt Q8IDJ8); experiment: Pf-KRS1 inhibition biochemical assay (Kinase-Glo, ATP depletion); settings: read-out: Pf-KRS pIC50 (converted)
T1 construct: Pf KRS1-; made in house; host or cells: E. coli BL21 (DE3)
T1 sequence (Q8IDJ8 entry or part of it, looked up, natural form): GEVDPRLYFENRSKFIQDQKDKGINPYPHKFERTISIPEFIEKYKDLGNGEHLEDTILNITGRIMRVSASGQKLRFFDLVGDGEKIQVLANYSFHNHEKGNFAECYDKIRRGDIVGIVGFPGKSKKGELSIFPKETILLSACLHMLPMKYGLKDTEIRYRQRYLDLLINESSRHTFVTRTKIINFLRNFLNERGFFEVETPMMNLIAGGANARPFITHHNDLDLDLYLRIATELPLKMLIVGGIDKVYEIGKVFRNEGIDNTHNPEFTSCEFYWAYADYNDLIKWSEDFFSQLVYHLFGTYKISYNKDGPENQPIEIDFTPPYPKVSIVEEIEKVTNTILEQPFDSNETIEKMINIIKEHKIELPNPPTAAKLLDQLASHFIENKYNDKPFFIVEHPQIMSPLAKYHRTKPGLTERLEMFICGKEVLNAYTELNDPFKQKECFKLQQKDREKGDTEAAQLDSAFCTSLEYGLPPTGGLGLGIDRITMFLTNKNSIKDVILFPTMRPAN
Excerpt: Plasmodium falciparum Lysine tRNA Synthetase (KRS1) Biochemical Assay Methodology.
Lysine tRNA Synthetase (KRS1) is an enzyme which catalyses the esterification of L-Lysine to the appropriate transfer ribonucleic acid (tRNA), to form an aminoacyl-tRNA. Once the tRNA is charged, a ribosome transfers the amino acid from the tRNA onto a growing peptide, according to the genetic code.
The substrates of this reaction are L-lysine, and adenosine triphosphate (ATP), the overall reaction is: amino acid+tRNA+ATP→aminoacyl-tRNA+AMP+PPi
In this overall reaction AMP is adenosine monophosphate and PP; is inorganic pyrophosphate. The reaction progression in a biochemical assay can be tracked by the depletion of one of the substrates, in the case of this invention, ATP. This was done using the proprietary assay kit, Kinase Glo® Assay which is a luminescent kinase assay platform suitable for monitoring kinase activities using up to 10 μm ATP which is commercially available from the Promega Corporation of Madison, Wis., USA. The Kinase-Glo® Assay was performed in a single well of a multiwell plate by adding a volume of Kinase-Glo® Reagent equal to the volume of a completed kinase reaction and measuring luminescence. The resulting luminescent signal is correlated with the amount of ATP present and is inversely correlated with the amount of kinase activity. As such by use of this assay methodology a reduction of the luminescent signal is relative to the reduction in ATP as the reaction progresses. A compound which inhibits the action of KRS will show no drop in the luminescent signal from assay controls.
Assays were performed using both Plasmodium falciparum and human KRS to assess any selectivity of various test compounds.
Test compounds were solubilized in DMSO at a top concentration of 10 mM and serially diluted 1 in 3 to achieve a range of final assay concentrations of 50 μM to 2.5 nM in 10 μl reaction volume.
KRS was diluted to a working concentration of 75 nM in assay buffer (25 mM HEPES, 25 mM KOH, 10 mM MgCl2.6H2O, 50 mM KCl), and the following ‘Master Mix’ prepared in assay buffer: 0.1 mg/ml BSA, 250 μM DTT, 200 μM Spermine, 0.05% NP-40, ATP 3 μM for Pf KRS1 (4 μM for Hs KRS1), 0.4 mg/ml tRNA from Yeast, 60 μM L-Lysine, 0.5 U/ml Pyrophosphatase.
Plates were incubated at room temperature for 5 h for Pf KRS (2.5 hrs for HsKRS), then the assay stopped by the addition of 10 μl of The Kinase-Glo® Reagent Assay was performed in a single well of a multiwell plate by adding a volume of Kinase-Glo® Reagent which is commercially available from the Promega Corporation of Madison, Wis., USA. The plates were incubated in the dark for a further 15 mins before being read for luminescence on a BMG PHERAstar® FSX plate reader which is a multi-mode reader for use in high-throughput screening available from BMG Labtech if Cary, N.C., USA. Data were analysed by calculating the percentage inhibition compared to the maximum and minimum assay controls. Concentration effect curves were fitted using nonlinear regression within ActivityBase and IC50 values were determined using standard protocols.

Leishmania donovani [3] = experiment: Ld-cAxAm-TP-pMIC assay; format: cell-based; settings: read-out: Ld-cAxAm-TP-pMIC pEC50 (converted)
Leishmania donovani [4] = experiment: Leishmania donovani intramacrophage inhibition assay (Ld-INMAC); format: cell-based; settings: intramacrophage amastigotes in THP-1 cells, read-out: Ld-INMAC pEC50 (converted)
Protocol: Assay Method for Measurement of In Vitro Inhibition of Leishmania donovani.
These experiments were run in accordance with the method as detailed herein and results from these experiments are provided in the Experimental Results hereinafter.
The intramacrophage Leishmania assay was performed as described in de Rycker et al (Antimicrob Agents Chemother, 2013 July; 57(7):2913-22. doi: 10.1128/AAC.02398-12). Briefly, 1 μl of compound was pre-dispensed into 384 well sterile intermediary plates. For single point screening, amphotericin B was added to all wells of column 24 as a positive control (final concentration 2 μM) and DMSO to column 23. For potency determinations, ten-point, one in three dilution curves were created with the highest concentration being 50 μM and on each plate a control curve of amphotericin B was included. Controls were as follows: columns 11 and 12: DMSO, columns 23 and 24: amphotericin B (final concentration 2 μM). To the intermediary plates, 100 μl of THP-1 media was added and plates were shaken for >5 min to ensure complete mixing. THP-1 cells (8,000 per well, 50 μl) were plated into black clear-bottom 384 well plates (Corning) in presence of 10 nM PMA. After 20 min at room temperature, the plates were incubated at 37° C. under 5% CO2 in a humidified incubator for 75 h. The cells were then washed with […] sterile phosphate buffered saline (PBS) supplemented with 1 mM CaCl2, 0.5 mM MgCl2, 0.1% (w/v) bovine serum albumin (PBS-A) and amastigotes were added to all wells at a multiplicity of infection of 5 (40,000 amastigotes per well). After 40 min at room temperature, plates were returned to the incubator. Amastigotes were incubated in the presence of macrophages for 16 h. Any remaining extracellular amastigotes were subsequently removed with an overflow wash of 1 ml PBS-A per well (wash buffer is being aspirated from the top of the well as it is being dispensed) followed by addition of 25 μl of the compound pre-dilutions using a Matrix Hydra DT pipetting station. The final dilution of each compound was 200-fold. Plates were incubated for 72 h and then washed (250 μl PBS-A) and fixed (4% (v/v) formaldehyde-PBS, 30 min, room temperature). After fixation, the wells were washed with 250 μl PBS, stained (10 μg/ml DAPI, 0.4 μg ml-1 HCS Cellmask Deep Red in PBS+0.1% (v/v) Triton X-100, 30 min, room temperature) and washed with 250 μl PBS. Finally, PBS+0.05% (v/v) thimerosal was added to the wells, the plates were sealed and imaged on a high-content microscope (GE IN Cell 1000 or GE IN Cell 2000) using a 10× objective. Image analysis was carried out with GE IN Cell Analyzer 1000 Workstation using the “Multi Target Analysis” module. […]

THP-1 cells = experiment: THP-1 host cell count in intramacrophage Leishmania assay; format: cell-based; settings: Homo sapiens, host cell toxicity, read-out: THP1 pEC50 (converted)
Protocol: The intramacrophage Leishmania assay was performed as described in de Rycker et al (Antimicrob Agents Chemother, 2013 July; 57(7):2913-22. doi: 10.1128/AAC.02398-12). Briefly, 1 μl of compound was pre-dispensed into 384 well sterile intermediary plates. For single point screening, amphotericin B was added to all wells of column 24 as a positive control (final concentration 2 μM) and DMSO to column 23. For potency determinations, ten-point, one in three dilution curves were created with the highest concentration being 50 μM and on each plate a control curve of amphotericin B was included. Controls were as follows: columns 11 and 12: DMSO, columns 23 and 24: amphotericin B (final concentration 2 μM). To the intermediary plates, 100 μl of THP-1 media was added and plates were shaken for >5 min to ensure complete mixing. THP-1 cells (8,000 per well, 50 μl) were plated into black clear-bottom 384 well plates (Corning) in presence of 10 nM PMA. After 20 min at room temperature, the plates were incubated at 37° C. under 5% CO2 in a humidified incubator for 75 h. The cells were then washed with […] sterile phosphate buffered saline (PBS) supplemented with 1 mM CaCl2, 0.5 mM MgCl2, 0.1% (w/v) bovine serum albumin (PBS-A) and amastigotes were added to all wells at a multiplicity of infection of 5 (40,000 amastigotes per well). After 40 min at room temperature, plates were returned to the incubator. Amastigotes were incubated in the presence of macrophages for 16 h. Any remaining extracellular amastigotes were subsequently removed with an overflow wash of 1 ml PBS-A per well (wash buffer is being aspirated from the top of the well as it is being dispensed) followed by addition of 25 μl of the compound pre-dilutions using a Matrix Hydra DT pipetting station. The final dilution of each compound was 200-fold. Plates were incubated for 72 h and then washed (250 μl PBS-A) and fixed (4% (v/v) formaldehyde-PBS, 30 min, room temperature). After fixation, the wells were washed with 250 μl PBS, stained (10 μg/ml DAPI, 0.4 μg ml-1 HCS Cellmask Deep Red in PBS+0.1% (v/v) Triton X-100, 30 min, room temperature) and washed with 250 μl PBS. Finally, PBS+0.05% (v/v) thimerosal was added to the wells, the plates were sealed and imaged on a high-content microscope (GE IN Cell 1000 or GE IN Cell 2000) using a 10× objective. Image analysis was carried out with GE IN Cell Analyzer 1000 Workstation using the “Multi Target Analysis” module. Settings for segmentation were as follows: nuclei: minimum area: 142.384 μm^2, sensitivity: 81, method: top-hat; cells: characteristic area: 2500 μm^2, sensitivity: 60, method: multiscale top-hat; organelles (amastigotes): granule size 1-3, 3 scales, sensitivity: 90, detection in entire cell. […]

[5] = biological target: T2, Mycobacterium tuberculosis lysyl t-RNA synthetase (Mtb KRS) (Mycobacterium tuberculosis, UniProt P9WFU9); experiment: Mtb KRS inhibition biochemical assay (BioMol Green); settings: read-out: Mtb KRS pIC50 (converted)
T2 construct: MtbKRS1-; made in house; host or cells: E. coli BL21 (DE3)
T2 sequence (P9WFU9 whole entry): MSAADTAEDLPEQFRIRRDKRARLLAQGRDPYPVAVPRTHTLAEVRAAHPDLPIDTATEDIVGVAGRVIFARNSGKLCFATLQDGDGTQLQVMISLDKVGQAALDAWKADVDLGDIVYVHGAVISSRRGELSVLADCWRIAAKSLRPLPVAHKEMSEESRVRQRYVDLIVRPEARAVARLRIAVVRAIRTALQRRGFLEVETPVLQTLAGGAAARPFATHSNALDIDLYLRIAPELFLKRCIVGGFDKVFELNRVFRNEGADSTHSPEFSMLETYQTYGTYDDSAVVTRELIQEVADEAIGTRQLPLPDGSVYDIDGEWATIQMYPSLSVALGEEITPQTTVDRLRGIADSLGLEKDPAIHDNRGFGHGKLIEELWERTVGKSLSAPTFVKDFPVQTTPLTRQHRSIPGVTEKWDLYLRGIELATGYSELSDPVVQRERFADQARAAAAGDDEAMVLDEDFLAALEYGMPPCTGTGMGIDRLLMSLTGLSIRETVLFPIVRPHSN

| SMILES | EC50 (Trypanosoma cruzi) | EC50 (Cryptosporidium parvum) | EC50 [1] | EC50 (Hep G2) | IC50 [2] | EC50 (Leishmania donovani [3]) | EC50 (Leishmania donovani [4]) | EC50 (THP-1 cells) | IC50 [5] |
| --- | --- | --- | --- | --- | --- | --- | --- | --- | --- |
| O=C(NCC1CCCCC1)c1cc(=O)c2cc(O)ccc2o1 [Example 6, N-(cyclohexylmethyl)-6-hydroxy-4-oxo-chromene-2-carboxamide] | 20 nM | 126 nM | 158 nM | 15800 nM | 63.1 nM |  |  |  |  |
| O=C(NCC1CCCCC1)c1cc(=O)c2cccc(O)c2o1 [Example 12, N-(cyclohexylmethyl)-8-hydroxy-4-oxo-chromene-2-carboxamide] | 316 nM |  |  | 25100 nM |  |  |  |  |  |
| O=C(NCC1(O)CCCCC1)c1cc(=O)c2cc(O)ccc2o1 [Example 13, 6-hydroxy-N-[(1-hydroxycyclohexyl)methyl]-4-oxo-chromene-2-carboxamide] | 251 nM | 120 nM | 50.1 nM | 20000 nM | 79.4 nM |  |  |  |  |
| O=C(NCC1CCCCC1)c1cc(=O)c2cc(F)ccc2o1 [Example 31, N-(cyclohexylmethyl)-6-fluoro-4-oxo-chromene-2-carboxamide] | 126 nM | 631 nM | 316 nM | 50100 nM | 79.4 nM |  |  |  |  |
| O=C(NCC1(O)CCCCC1)c1cc(=O)c2cc(Cl)ccc2o1 [Example 48, 6-chloro-N-[(1-hydroxycyclohexyl)methyl]-4-oxo-chromene-2-carboxamide] |  | 63.1 nM | 398 nM | 31600 nM | 126 nM | 10000 nM | 7940 nM | > 50100 nM |  |
| O=C(NC1CCCCC1)c1cc(=O)c2cc(F)cc(O)c2o1 [Example 76B, N-cyclohexyl-6-fluoro-8-hydroxy-4-oxo-chromene-2-carboxamide] |  |  | 1580 nM |  | 398 nM |  |  |  | 7940 nM |
